Results: PMC10408569, “Recruitment of hexahydroquinoline as anticancer scaffold targeting inhibition of wild and mutants EGFR (EGFR^WT, EGFR^T790M, and EGFR^L858R)” (Journal of Enzyme Inhibition and Medicinal Chemistry, 2023)

What was measured:
MOLT-4 = test: NCI-60 anticancer screening (SRB); format: cell-based; details: Homo sapiens; for inhibition at 10 µM: MOLT-4, leukemia, one dose 10 μM, read-out: Growth Inhibition Percentage (GI %)
RPMI-8226 = test: NCI-60 anticancer screening (SRB); format: cell-based; details: Homo sapiens; for inhibition at 10 µM: RPMI-8226, leukemia, one dose 10 μM, read-out: Growth Inhibition Percentage (GI %)
A549/ATCC = test: NCI-60 anticancer screening (SRB); format: cell-based; details: Homo sapiens; for inhibition at 10 µM: A549/ATCC, NSC lung cancer, one dose 10 μM, read-out: Growth Inhibition Percentage (GI %)
EKVX = test: NCI-60 anticancer screening (SRB); format: cell-based; details: Homo sapiens; for inhibition at 10 µM: NSC lung cancer, one dose 10 μM, read-out: Growth Inhibition Percentage (GI %)
HOP-62 = test: NCI-60 anticancer screening (SRB); format: cell-based; details: Homo sapiens; for inhibition at 10 µM: HOP-62, NSC lung cancer, one dose 10 μM, read-out: Growth Inhibition Percentage (GI %)
HOP-92 = test: NCI-60 anticancer screening (SRB); format: cell-based; details: Homo sapiens; for inhibition at 10 µM: HOP-92, NSC lung cancer, one dose 10 μM, read-out: Growth Inhibition Percentage (GI %)
NCI-H460 = test: NCI-60 anticancer screening (SRB); format: cell-based; details: Homo sapiens; for inhibition at 10 µM: NCI-H460, NSC lung cancer, one dose 10 μM, read-out: Growth Inhibition Percentage (GI %)
NCI-H522 = test: NCI-60 anticancer screening (SRB); format: cell-based; details: Homo sapiens; for inhibition at 10 µM: NCI-H522, NSC lung cancer, one dose 10 μM, read-out: Growth Inhibition Percentage (GI %)
HCC-2998 = test: NCI-60 anticancer screening (SRB); format: cell-based; details: Homo sapiens; for inhibition at 10 µM: HCC-2998, colon cancer, one dose 10 μM, read-out: Growth Inhibition Percentage (GI %)
HT29 = test: NCI-60 anticancer screening (SRB); format: cell-based; details: Homo sapiens, HT-29; for inhibition at 10 µM: HT29, colon cancer, one dose 10 μM, read-out: Growth Inhibition Percentage (GI %)
SF-295 = test: NCI-60 anticancer screening (SRB); format: cell-based; details: Homo sapiens; for inhibition at 10 µM: SF-295, CNS cancer, one dose 10 μM, read-out: Growth Inhibition Percentage (GI %)
SF-539 = test: NCI-60 anticancer screening (SRB); format: cell-based; details: Homo sapiens; for inhibition at 10 µM: SF-539, CNS cancer, one dose 10 μM, read-out: Growth Inhibition Percentage (GI %)
SNB-19 = test: NCI-60 anticancer screening (SRB); format: cell-based; details: Homo sapiens; for inhibition at 10 µM: SNB-19, CNS cancer, one dose 10 μM, read-out: Growth Inhibition Percentage (GI %)
MALME-3M = test: NCI-60 anticancer screening (SRB); format: cell-based; details: Homo sapiens; for inhibition at 10 µM: melanoma, one dose 10 μM, read-out: Growth Inhibition Percentage (GI %)
MDA-MB-435 = test: NCI-60 anticancer screening (SRB); format: cell-based; details: Homo sapiens; for inhibition at 10 µM: MDA-MB-435, melanoma, one dose 10 μM, read-out: Growth Inhibition Percentage (GI %)
SK-MEL-28 = test: NCI-60 anticancer screening (SRB); format: cell-based; details: Homo sapiens; for inhibition at 10 µM: SK-MEL-28, melanoma, one dose 10 μM, read-out: Growth Inhibition Percentage (GI %)
SK-MEL-5 = test: NCI-60 anticancer screening (SRB); format: cell-based; details: Homo sapiens; for inhibition at 10 µM: SK-MEL-5, melanoma, one dose 10 μM, read-out: Growth Inhibition Percentage (GI %)
UACC-62 = test: NCI-60 anticancer screening (SRB); format: cell-based; details: Homo sapiens; for inhibition at 10 µM: UACC-62, melanoma, one dose 10 μM, read-out: Growth Inhibition Percentage (GI %)
OVCAR-3 = test: NCI-60 anticancer screening (SRB); format: cell-based; details: Homo sapiens; for inhibition at 10 µM: OVCAR-3, ovarian cancer, one dose 10 μM, read-out: Growth Inhibition Percentage (GI %)
OVCAR-4 = test: NCI-60 anticancer screening (SRB); format: cell-based; details: Homo sapiens; for inhibition at 10 µM: OVCAR-4, ovarian cancer, one dose 10 μM, read-out: Growth Inhibition Percentage (GI %)
OVCAR-8 = test: NCI-60 anticancer screening (SRB); format: cell-based; details: Homo sapiens; for inhibition at 10 µM: OVCAR-8, ovarian cancer, one dose 10 μM, read-out: Growth Inhibition Percentage (GI %)
ACHN = test: NCI-60 anticancer screening (SRB); format: cell-based; details: Homo sapiens; for inhibition at 10 µM: renal cancer, one dose 10 μM, read-out: Growth Inhibition Percentage (GI %)
CAKI-1 = test: NCI-60 anticancer screening (SRB); format: cell-based; details: Homo sapiens; for inhibition at 10 µM: CAKI-1, renal cancer, one dose 10 μM, read-out: Growth Inhibition Percentage (GI %)
SN 12C = test: NCI-60 anticancer screening (SRB); format: cell-based; details: Homo sapiens, SN12C; for inhibition at 10 µM: SN 12C, renal cancer, one dose 10 μM, read-out: Growth Inhibition Percentage (GI %)
UO-31 = test: NCI-60 anticancer screening (SRB); format: cell-based; details: Homo sapiens; for inhibition at 10 µM: UO-31, renal cancer, one dose 10 μM, read-out: Growth Inhibition Percentage (GI %)
DU-145 = test: NCI-60 anticancer screening (SRB); format: cell-based; details: Homo sapiens; for inhibition at 10 µM: DU-145, prostate cancer, one dose 10 μM, read-out: Growth Inhibition Percentage (GI %)
HS 578T = test: NCI-60 anticancer screening (SRB); format: cell-based; details: Homo sapiens; for inhibition at 10 µM: HS 578T, breast cancer, one dose 10 μM, read-out: Growth Inhibition Percentage (GI %)
EGFR^T790M = EGFR^T790M (Homo sapiens, UniProt P00533, T790M); test: biochemical
Chain of EGFR^T790M (P00533 25-1210 T790M): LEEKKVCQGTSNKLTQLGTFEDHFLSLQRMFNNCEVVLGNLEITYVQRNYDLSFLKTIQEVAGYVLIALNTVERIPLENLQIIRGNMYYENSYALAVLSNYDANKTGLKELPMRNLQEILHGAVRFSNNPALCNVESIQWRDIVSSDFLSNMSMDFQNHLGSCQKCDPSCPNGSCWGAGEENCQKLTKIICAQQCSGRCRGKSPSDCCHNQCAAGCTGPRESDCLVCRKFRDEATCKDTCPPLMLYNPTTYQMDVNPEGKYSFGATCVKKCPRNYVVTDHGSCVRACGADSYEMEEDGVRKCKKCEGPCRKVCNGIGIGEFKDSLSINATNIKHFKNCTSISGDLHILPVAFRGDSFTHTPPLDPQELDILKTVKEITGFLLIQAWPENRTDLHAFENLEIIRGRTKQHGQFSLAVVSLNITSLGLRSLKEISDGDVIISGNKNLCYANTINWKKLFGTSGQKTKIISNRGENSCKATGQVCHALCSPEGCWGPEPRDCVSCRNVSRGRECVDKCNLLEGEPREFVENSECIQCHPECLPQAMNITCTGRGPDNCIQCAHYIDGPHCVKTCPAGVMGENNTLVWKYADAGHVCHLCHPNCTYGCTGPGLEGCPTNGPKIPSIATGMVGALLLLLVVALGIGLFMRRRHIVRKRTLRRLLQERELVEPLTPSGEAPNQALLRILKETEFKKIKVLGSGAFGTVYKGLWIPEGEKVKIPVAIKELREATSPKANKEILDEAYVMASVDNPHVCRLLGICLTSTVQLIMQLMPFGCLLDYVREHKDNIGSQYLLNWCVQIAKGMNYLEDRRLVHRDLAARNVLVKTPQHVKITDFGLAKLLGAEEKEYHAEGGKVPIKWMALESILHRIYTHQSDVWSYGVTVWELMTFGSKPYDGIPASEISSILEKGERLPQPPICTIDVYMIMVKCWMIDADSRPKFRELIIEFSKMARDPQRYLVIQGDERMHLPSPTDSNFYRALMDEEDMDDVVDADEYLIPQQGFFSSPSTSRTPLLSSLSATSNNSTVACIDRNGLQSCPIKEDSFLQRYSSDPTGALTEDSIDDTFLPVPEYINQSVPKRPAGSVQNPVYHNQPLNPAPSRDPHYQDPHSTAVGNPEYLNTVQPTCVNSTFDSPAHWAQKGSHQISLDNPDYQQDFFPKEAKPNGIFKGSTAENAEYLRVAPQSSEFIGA

EGFR^L858R = EGFR^L858R (Homo sapiens, UniProt P00533, L858R); test: biochemical
Chain of EGFR^L858R (P00533 25-1210 L858R): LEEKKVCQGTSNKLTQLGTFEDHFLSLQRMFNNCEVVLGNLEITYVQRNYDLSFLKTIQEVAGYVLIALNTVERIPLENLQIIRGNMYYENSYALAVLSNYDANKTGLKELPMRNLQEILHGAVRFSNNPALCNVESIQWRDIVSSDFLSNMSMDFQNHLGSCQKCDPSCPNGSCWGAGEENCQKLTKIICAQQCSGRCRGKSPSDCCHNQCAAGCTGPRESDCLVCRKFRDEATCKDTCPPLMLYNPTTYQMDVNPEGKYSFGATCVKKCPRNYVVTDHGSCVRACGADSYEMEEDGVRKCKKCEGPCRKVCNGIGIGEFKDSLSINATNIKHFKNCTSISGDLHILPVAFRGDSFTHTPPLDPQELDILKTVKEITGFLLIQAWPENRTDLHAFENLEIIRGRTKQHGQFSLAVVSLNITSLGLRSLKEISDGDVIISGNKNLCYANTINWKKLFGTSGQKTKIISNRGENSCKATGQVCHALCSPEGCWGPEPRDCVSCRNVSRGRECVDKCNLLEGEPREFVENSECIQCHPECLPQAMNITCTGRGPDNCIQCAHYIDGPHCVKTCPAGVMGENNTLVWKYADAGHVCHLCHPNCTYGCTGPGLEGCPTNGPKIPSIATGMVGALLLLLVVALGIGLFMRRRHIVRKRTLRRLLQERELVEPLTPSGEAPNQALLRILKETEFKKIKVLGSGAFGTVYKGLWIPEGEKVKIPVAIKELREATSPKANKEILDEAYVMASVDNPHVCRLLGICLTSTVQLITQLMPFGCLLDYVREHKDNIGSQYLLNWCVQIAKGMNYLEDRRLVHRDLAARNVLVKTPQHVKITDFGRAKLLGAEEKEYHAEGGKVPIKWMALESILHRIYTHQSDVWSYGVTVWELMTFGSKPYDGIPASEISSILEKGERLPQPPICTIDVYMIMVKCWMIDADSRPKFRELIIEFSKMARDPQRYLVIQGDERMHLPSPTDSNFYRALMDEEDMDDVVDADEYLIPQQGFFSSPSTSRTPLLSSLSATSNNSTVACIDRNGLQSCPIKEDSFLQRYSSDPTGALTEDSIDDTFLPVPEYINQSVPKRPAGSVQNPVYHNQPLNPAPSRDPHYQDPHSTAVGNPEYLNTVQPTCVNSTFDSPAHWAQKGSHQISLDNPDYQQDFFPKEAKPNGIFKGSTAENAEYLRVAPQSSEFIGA

EGFR^WT = EGFR^WT (Homo sapiens, UniProt P00533); test: EGFR kinase inhibitory assay (HTRF)
Chain of EGFR^WT (P00533 25-1210): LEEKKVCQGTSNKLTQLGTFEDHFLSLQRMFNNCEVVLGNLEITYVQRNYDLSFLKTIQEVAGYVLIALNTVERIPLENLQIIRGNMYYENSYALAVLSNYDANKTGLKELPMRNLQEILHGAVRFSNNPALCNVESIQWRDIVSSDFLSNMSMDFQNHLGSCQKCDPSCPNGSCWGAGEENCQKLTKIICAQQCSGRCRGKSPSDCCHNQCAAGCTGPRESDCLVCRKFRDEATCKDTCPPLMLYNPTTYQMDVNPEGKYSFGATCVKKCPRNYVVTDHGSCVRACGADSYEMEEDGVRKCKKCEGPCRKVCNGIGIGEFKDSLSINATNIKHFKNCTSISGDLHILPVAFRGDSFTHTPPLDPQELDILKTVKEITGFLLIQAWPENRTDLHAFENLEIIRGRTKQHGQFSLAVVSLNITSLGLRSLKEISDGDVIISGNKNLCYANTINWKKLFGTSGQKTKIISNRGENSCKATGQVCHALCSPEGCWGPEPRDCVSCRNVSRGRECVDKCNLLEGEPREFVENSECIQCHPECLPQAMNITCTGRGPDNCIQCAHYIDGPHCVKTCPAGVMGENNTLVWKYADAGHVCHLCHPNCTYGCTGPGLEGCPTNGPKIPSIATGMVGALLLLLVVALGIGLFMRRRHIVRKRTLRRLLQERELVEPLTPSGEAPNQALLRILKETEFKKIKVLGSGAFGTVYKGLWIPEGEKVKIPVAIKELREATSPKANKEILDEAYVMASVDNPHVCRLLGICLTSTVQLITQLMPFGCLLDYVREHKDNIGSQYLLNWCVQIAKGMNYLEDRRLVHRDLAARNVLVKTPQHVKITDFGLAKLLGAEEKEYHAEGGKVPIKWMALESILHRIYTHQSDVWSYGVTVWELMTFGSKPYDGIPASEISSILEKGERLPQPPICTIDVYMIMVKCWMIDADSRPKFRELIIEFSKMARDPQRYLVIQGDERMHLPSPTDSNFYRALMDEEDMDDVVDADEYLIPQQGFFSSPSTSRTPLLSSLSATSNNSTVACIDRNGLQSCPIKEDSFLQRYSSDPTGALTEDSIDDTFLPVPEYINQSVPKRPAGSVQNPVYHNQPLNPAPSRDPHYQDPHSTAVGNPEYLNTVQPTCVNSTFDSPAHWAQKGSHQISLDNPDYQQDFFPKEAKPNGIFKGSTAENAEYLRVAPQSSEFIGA

CCOC(=O)C1=C(N)N(c2ccccc2)C2=C(C(=O)CC(C)(C)C2)C1c1ccc(Cl)cc1Cl (racemic) [10c, (±)-Ethyl 2-amino-4–(2,4-dichlorophenyl)-7,7-dimethyl-5-oxo-1-phenyl-1,4,5,6,7,8-hexahydroquinoline-3-carboxylate]
inhibition at 10 µM (MOLT-4): 93%
GI50 (MOLT-4; MOLT-4, five doses 0.01-100 µM, 48 h): 9560 nM
inhibition at 10 µM (RPMI-8226): 92%
GI50 (RPMI-8226; RPMI-8226, five doses 0.01-100 µM, 48 h): 7070 nM
inhibition at 10 µM (A549/ATCC): 73%
GI50 (A549/ATCC; A549, five doses 0.01-100 µM, 48 h): 1880 nM
inhibition at 10 µM (EKVX): 81%
GI50 (EKVX; five doses 0.01-100 µM, 48 h): 2620 nM
inhibition at 10 µM (HOP-62): 49%
GI50 (HOP-62; HOP-62, five doses 0.01-100 µM, 48 h): 4880 nM
inhibition at 10 µM (HOP-92): 100%
GI50 (HOP-92; HOP-92, five doses 0.01-100 µM, 48 h): 3890 nM
inhibition at 10 µM (NCI-H460): 82%
GI50 (NCI-H460; NCI-H460, five doses 0.01-100 µM, 48 h): 1390 nM
inhibition at 10 µM (NCI-H522): 65%
GI50 (NCI-H522; NCI-H522, five doses 0.01-100 µM, 48 h): 2220 nM
inhibition at 10 µM (HCC-2998): 62%
GI50 (HCC-2998; HCC-2998, five doses 0.01-100 µM, 48 h): 2770 nM
inhibition at 10 µM (HT29): 65%
GI50 (HT29; five doses 0.01-100 µM, 48 h): 1980 nM
inhibition at 10 µM (SF-295): 76%
GI50 (SF-295; SF-295, five doses 0.01-100 µM, 48 h): 2030 nM
inhibition at 10 µM (SF-539): 67%
GI50 (SF-539; SF-539, five doses 0.01-100 µM, 48 h): 3780 nM
inhibition at 10 µM (SNB-19): 72%
GI50 (SNB-19; SNB-19, five doses 0.01-100 µM, 48 h): 2920 nM
GI50 (MALME-3M; five doses 0.01-100 µM, 48 h): 2930 nM
inhibition at 10 µM (MALME-3M): 72%
inhibition at 10 µM (MDA-MB-435): 71%
GI50 (MDA-MB-435; MDA-MB-435, five doses 0.01-100 µM, 48 h): 3210 nM
inhibition at 10 µM (SK-MEL-28): 49%
GI50 (SK-MEL-28; SK-MEL-28, five doses 0.01-100 µM, 48 h): 6670 nM
inhibition at 10 µM (SK-MEL-5): 102%
GI50 (SK-MEL-5; SK-MEL-5, five doses 0.01-100 µM, 48 h): 1240 nM
inhibition at 10 µM (UACC-62): 73%
GI50 (UACC-62; UACC-62, five doses 0.01-100 µM, 48 h): 1260 nM
inhibition at 10 µM (OVCAR-3): 67%
GI50 (OVCAR-3; OVCAR-3, five doses 0.01-100 µM, 48 h): 2620 nM
inhibition at 10 µM (OVCAR-4): 75%
GI50 (OVCAR-4; OVCAR-4, five doses 0.01-100 µM, 48 h): 2830 nM
inhibition at 10 µM (OVCAR-8): 63%
GI50 (OVCAR-8; OVCAR-8, five doses 0.01-100 µM, 48 h): 3720 nM
GI50 (ACHN; five doses 0.01-100 µM, 48 h): 1830 nM
inhibition at 10 µM (ACHN): 83%
inhibition at 10 µM (CAKI-1): 77%
GI50 (CAKI-1; CAKI-1, five doses 0.01-100 µM, 48 h): 6820 nM
inhibition at 10 µM (SN 12C): 79%
GI50 (SN 12C; SN 12 C, five doses 0.01-100 µM, 48 h): 3080 nM
inhibition at 10 µM (UO-31): 83%
GI50 (UO-31; UO-31, five doses 0.01-100 µM, 48 h): 1150 nM
inhibition at 10 µM (DU-145): 54%
GI50 (DU-145; DU-145, five doses 0.01-100 µM, 48 h): 6710 nM
inhibition at 10 µM (HS 578T): < 10%
GI50 (HS 578T; HS 578 T, five doses 0.01-100 µM, 48 h): 7680 nM
IC50 (EGFR^T790M): 586 ± 3 nM
IC50 (EGFR^L858R): 623 ± 5 nM
IC50 (EGFR^WT): 148 ± 40 nM

CCOC(=O)C1=C(N)N(c2ccc(Cl)cc2)C2=C(C(=O)CC(C)(C)C2)C1c1ccc(Cl)cc1Cl (racemic) [10d, (±)-Ethyl 2-amino-1–(4-chorophenyl)-4–(2,4-dichlorophenyl)-7,7-dimethyl-5-oxo-1-phenyl-1,4,5,6,7,8-hexahydroquinoline-3-carboxylate]
inhibition at 10 µM (MOLT-4): 71%
inhibition at 10 µM (RPMI-8226): 85%
inhibition at 10 µM (A549/ATCC): 48%
inhibition at 10 µM (EKVX): 71%
inhibition at 10 µM (HOP-62): 46%
inhibition at 10 µM (HOP-92): 55%
inhibition at 10 µM (NCI-H460): 49%
inhibition at 10 µM (NCI-H522): 51%
inhibition at 10 µM (HCC-2998): 23%
inhibition at 10 µM (HT29): 43%
inhibition at 10 µM (SF-295): 48%
inhibition at 10 µM (SF-539): 21%
inhibition at 10 µM (SNB-19): 46%
inhibition at 10 µM (MALME-3M): 32%
inhibition at 10 µM (MDA-MB-435): 42%
inhibition at 10 µM (SK-MEL-28): 30%
inhibition at 10 µM (SK-MEL-5): 51%
inhibition at 10 µM (UACC-62): 45%
inhibition at 10 µM (OVCAR-3): 49%
inhibition at 10 µM (OVCAR-4): 56%
inhibition at 10 µM (OVCAR-8): 29%
inhibition at 10 µM (ACHN): 50%
inhibition at 10 µM (CAKI-1): 54%
inhibition at 10 µM (SN 12C): 47%
inhibition at 10 µM (UO-31): 65%
inhibition at 10 µM (DU-145): 23%
inhibition at 10 µM (HS 578T): < 10%
IC50 (EGFR^T790M): 280 ± 1 nM
IC50 (EGFR^L858R): 51 ± 1 nM
IC50 (EGFR^WT): 97 ± 5 nM
